Reference: US6448256B1, “Antibiotic prodrugs” (University of Massachusetts, priority 1999, dated 2002)
Values after ≈ are worked out from the molar mass of the structure shown. Where two headings read alike, the source gives them in different places.

Tests used:
B. subtilis [1] = test: Antibacterial activity of crude compounds made by small scale synthesis; assay type: cell-based; conditions: crude reaction mixtures dissolved in DMSO, assayed directly
Procedure: 6-Anilinouracils were synthesized using small scale synthetic methods. One milligram quantities of 3-(3-methoxypropyl)-6-chlorouracil were heated with 42 substituted anilines in micro-test tubes at 130° C. for 20 minutes. The reaction mixtures were dissolved in DMSO and assayed directly for antibacterial activity.

B. subtilis DNA pol III = B. subtilis DNA pol III (Bacillus subtilis, UniProt P13267); test: Inhibition of B. subtilis DNA pol III (Ki); assay type: biochemical
Sequence of B. subtilis DNA pol III (P13267 whole entry): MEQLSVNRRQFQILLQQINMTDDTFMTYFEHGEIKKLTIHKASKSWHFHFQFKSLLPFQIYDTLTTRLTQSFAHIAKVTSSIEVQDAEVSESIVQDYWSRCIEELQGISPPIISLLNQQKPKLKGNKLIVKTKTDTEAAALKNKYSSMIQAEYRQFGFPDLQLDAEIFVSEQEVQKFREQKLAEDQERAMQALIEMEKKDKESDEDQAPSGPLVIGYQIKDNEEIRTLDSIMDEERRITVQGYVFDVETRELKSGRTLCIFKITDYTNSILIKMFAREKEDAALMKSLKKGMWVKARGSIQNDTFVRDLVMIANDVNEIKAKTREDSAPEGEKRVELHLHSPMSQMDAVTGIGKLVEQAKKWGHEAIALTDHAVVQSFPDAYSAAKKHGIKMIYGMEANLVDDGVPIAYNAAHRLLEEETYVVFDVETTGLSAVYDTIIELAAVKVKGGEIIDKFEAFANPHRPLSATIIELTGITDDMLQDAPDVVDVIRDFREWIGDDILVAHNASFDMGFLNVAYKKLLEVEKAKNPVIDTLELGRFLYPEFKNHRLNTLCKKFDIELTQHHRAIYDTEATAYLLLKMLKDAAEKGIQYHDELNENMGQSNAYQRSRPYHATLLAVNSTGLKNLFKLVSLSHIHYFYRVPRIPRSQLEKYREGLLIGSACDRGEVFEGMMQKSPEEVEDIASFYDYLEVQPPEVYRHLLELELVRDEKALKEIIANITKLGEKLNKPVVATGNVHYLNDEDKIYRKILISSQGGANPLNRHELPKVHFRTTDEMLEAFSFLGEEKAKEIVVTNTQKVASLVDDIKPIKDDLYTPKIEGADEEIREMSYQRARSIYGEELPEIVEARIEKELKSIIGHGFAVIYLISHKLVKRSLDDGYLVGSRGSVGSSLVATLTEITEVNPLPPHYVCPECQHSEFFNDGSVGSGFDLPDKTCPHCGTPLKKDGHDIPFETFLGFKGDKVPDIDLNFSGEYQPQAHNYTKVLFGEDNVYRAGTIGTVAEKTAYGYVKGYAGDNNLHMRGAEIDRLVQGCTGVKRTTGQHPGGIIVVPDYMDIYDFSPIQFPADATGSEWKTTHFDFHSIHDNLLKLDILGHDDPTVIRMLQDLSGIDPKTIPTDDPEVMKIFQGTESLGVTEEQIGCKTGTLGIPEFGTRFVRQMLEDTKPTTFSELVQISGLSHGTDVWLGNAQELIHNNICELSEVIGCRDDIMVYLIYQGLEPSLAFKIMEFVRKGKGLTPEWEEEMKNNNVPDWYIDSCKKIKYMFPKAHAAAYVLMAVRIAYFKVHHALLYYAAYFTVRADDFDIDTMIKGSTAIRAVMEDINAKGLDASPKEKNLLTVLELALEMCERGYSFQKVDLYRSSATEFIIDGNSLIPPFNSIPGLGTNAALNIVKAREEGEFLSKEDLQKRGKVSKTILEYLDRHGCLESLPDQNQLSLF
Procedure: (§1) To further investigate the antibacterial and/or DNA pol III inhibitory activity of various drug compounds, various ester-containing moieties N-linked to the EMAU core were produced as described in Example 1. These prodrugs were assayed for inhibition of B. subtilis DNA pol III and antibiotic activity against a number of bacteria.
The competitive inhibitor constants (Ki) of selected EMAU compounds were determined with three different pol Ills: the pol III enzyme from Bacillus subtilis (BS pol III), and the pol III enzymes of the clinically relevant pathogens, Enterococcus fecalis (EF pol III) and Staphylococcus aureus (SA pol 111).

B. subtilis [2] = test: MIC against B. subtilis; assay type: cell-based; conditions: for MIC: Bacillus subtilis, Table 6, read-out: MIC B. subtilis
Procedure: as §1
(§2) The minimal inhibitory concentrations (MICs) of the four N3-substituted agents and EMAU were determined for B. subtilis (BS), methicillin-sensitive and resistant S. aureus (SA & MRSA), vancomycin-sensitive and resistant E. fecalis (EF& VREF), vancomycin-resistant E. fecium (VREF*), and E. coli (EC) as a Gram-negative control.

S. aureus = test: MIC against S. aureus (methicillin-sensitive); assay type: cell-based; conditions: for MIC: Staphylococcus aureus, read-out: MIC S. aureas
Procedure: as §1, §2

E. fecalis = test: MIC against E. fecalis; assay type: cell-based; conditions: for MIC: Table 6, read-out: MIC E. fecalis
Procedure: as §1, §2

MRSA = test: MIC against methicillin-resistant S. aureus strain MRSA / MRSA1; assay type: cell-based; conditions: Table 2
Procedure: as §1, §2

MRSA2 = test: MIC against methicillin-resistant S. aureus strain MRSA2; assay type: cell-based; conditions: Table 2
Procedure: as §1, §2

E. fecium = test: MIC against E. fecium; assay type: cell-based; conditions: Table 2
Procedure: as §1

[3] = system: vancomycin-resistant E. fecium; test: MIC against vancomycin-resistant E. fecium (VRE, VREF*); assay type: cell-based; conditions: Table 2, vancomycin-resistant E. fecium
Procedure: as §1, §2

E. coli = test: MIC against E. coli (Gram-negative control); assay type: cell-based; conditions: Table 2
Procedure: as §1, §2

[4] = Table 6, read-out: Ki, inhibition constant vs. B. subtilis DNA pol III

SMILES | MIC B. subtilis (B. subtilis [1]) [µg/mL] | also measured
COCCCn1c(=O)cc(Nc2cc(F)c(F)c(F)c2)[nH]c1=O [3,4,5-triF] | >100 | 
COCCCn1c(=O)cc(Nc2cccc(C#N)c2)[nH]c1=O [Compound 3-CN] | >100 | 
COCCCn1c(=O)cc(Nc2cccc(Cl)c2)[nH]c1=O [Compound 3-Cl] | >100 | 
COCCCn1c(=O)cc(Nc2cccc(OC)c2)[nH]c1=O [Compound 3-OMe] | >100 | 
COCCCn1c(=O)cc(Nc2ccccc2)[nH]c1=O [—] | >100 | 
COCCCn1c(=O)cc(Nc2ccc(F)cc2)[nH]c1=O [Compound 4-F] | >100 | 
COCCCn1c(=O)cc(Nc2cccc(F)c2)[nH]c1=O [Compound 3-F] | >100 | 
COCCCn1c(=O)cc(Nc2ccc(C)c(C)c2)[nH]c1=O [3,4-diMe] | 6.26 (≈ 20.6 µM) | 
COCCCn1c(=O)cc(Nc2ccc(OC)c(OC)c2)[nH]c1=O [3,4-diOMe] | >100 | 
COCCCn1c(=O)cc(Nc2ccc(Cl)cc2)[nH]c1=O [Compound 4-Cl] | 100 (≈ 323 µM) | 
COCCCn1c(=O)cc(Nc2ccc(C)c(CO)c2)[nH]c1=O [Compound 3-CH2OH-4-Me] | >100 | 
CCc1cc(Nc2cc(=O)n(CCCCOC)c(=O)[nH]2)ccc1C [MB-EMAU] |  | Ki (B. subtilis DNA pol III; [4]): 430 nM; MIC (B. subtilis [2]): < 3.1 µg/mL; MIC (S. aureus): 6 µg/mL (≈ 18.1 µM); MIC (E. fecalis): 6 µg/mL (≈ 18.1 µM)
COCCCn1c(=O)cc(Nc2cccc(Br)c2)[nH]c1=O [Compound 3-Br] | >100 | 
COCCCn1c(=O)cc(Nc2ccc(Cl)c(C(F)(F)F)c2)[nH]c1=O [Compound 3-CF3-4-Cl] | >100 | 
Cc1ccc(Nc2cc(=O)n(CCCCI)c(=O)[nH]2)cc1I [IB-IMAU] |  | Ki (B. subtilis DNA pol III; [4]): 660 nM; MIC (B. subtilis [2]): < 3.1 µg/mL; MIC (S. aureus): 6 µg/mL (≈ 11.4 µM); MIC (E. fecalis): 6 µg/mL (≈ 11.4 µM)
COCCCn1c(=O)cc(Nc2cccc(CO)c2)[nH]c1=O [Compound 3-CH2OH] | >100 | 
COCCCn1c(=O)cc(Nc2ccc(OC)c(Cl)c2)[nH]c1=O [Compound 3-Cl-4-OMe] | 50 (≈ 147 µM) | 
CCc1ccc(Nc2cc(=O)n(CCCOC)c(=O)[nH]2)cc1 [Compound 4-Et] | 50 (≈ 165 µM) | 
COCCCn1c(=O)cc(Nc2ccc(O)cc2)[nH]c1=O [Compound 4-OH] | >100 | 
COCCCn1c(=O)cc(Nc2ccc(Cl)c(Cl)c2)[nH]c1=O [3,4-diCl] | 6.25 (≈ 18.2 µM) | 
COCCCn1c(=O)cc(Nc2ccc(C)c(I)c2)[nH]c1=O [Compound 3-1-4-Me] | 1.57 (≈ 3.78 µM) | 
CCc1cc(Nc2cc(=O)n(CCCCOC(=O)C3CCCN3C(=O)OC(C)(C)C)c(=O)[nH]2)ccc1C (stereo not shown) [(CH2)4-OCOCH(CH2)3NH-Boc] |  | Ki (B. subtilis DNA pol III; Table 2, prodrugs having the EMAU core, read-out: Ki B. subtilis DNA Pol III): 3200 nM; MIC B. subtilis (B. subtilis [2]; Table 2): <1.25 μ/ml; MIC S. aureus (S. aureus; Table 2): 10 μ/ml; MIC MRSA (MRSA): 20 μ/ml; MIC MRSA2 (MRSA2): 10 μ/ml; MIC E. fecalis (E. fecalis; Table 2): 10 μ/ml; MIC E. fecium (E. fecium): 10 μ/ml; MIC VRE [3]: 10 μ/ml; MIC E. coli (E. coli): >20 μ/ml
COCCCn1c(=O)cc(Nc2cccc(C)c2)[nH]c1=O [Compound 3-Me] | 100 (≈ 346 µM) | 
